# Patent US20130210821A1, “Methods for Treating Obesity” (priority 2010, published 2013)
# Where two headings read alike, the source gives them in different places.
# How the values were obtained:
# [1] = biological target: hMetAP2 (Homo sapiens, UniProt P50579); test: MetAP2 enzyme assay; type: biochemical
# [2] = test system: HUVEC; test: HUVEC inhibition (selectivity); type: cell-based, human
# [3] = biological target: hMetAP1 (Homo sapiens, UniProt P53582); test: MetAP1 enzyme assay; type: biochemical
# [4] = test system: HFF; test: HFF inhibition (selectivity); type: cell-based, human
# [5] = Co2+ as metal ion, Table 2, read-out: hMetAP2 Co^2+ IC50
# [6] = Mn2+ as metal ion, Table 2, read-out: hMetAP2 Mn^2+ IC50
# [7] = Co2+ as metal ion, Table 2, read-out: hMetAP1 Co^2+ IC50
# [8] = Mn2+ as metal ion, Table 2, read-out: hMetAP1 Mn^2+ IC50
# [9] = Mn2+ as metal ion, Table 1, read-out: hMetAP2 Mn^2+ IC50
# [10] = Co2+ as metal ion, Table 1, read-out: hMetAP1 CO^2+ IC50
# [11] = Mn2+ as metal ion, Table 1, read-out: hMetAP1 Mn^2+ IC50
# [12] = Co2+ as metal ion, Table 1, read-out: hMetAP2 CO^2+ IC50
# hMetAP2, sequence (P50579 whole entry): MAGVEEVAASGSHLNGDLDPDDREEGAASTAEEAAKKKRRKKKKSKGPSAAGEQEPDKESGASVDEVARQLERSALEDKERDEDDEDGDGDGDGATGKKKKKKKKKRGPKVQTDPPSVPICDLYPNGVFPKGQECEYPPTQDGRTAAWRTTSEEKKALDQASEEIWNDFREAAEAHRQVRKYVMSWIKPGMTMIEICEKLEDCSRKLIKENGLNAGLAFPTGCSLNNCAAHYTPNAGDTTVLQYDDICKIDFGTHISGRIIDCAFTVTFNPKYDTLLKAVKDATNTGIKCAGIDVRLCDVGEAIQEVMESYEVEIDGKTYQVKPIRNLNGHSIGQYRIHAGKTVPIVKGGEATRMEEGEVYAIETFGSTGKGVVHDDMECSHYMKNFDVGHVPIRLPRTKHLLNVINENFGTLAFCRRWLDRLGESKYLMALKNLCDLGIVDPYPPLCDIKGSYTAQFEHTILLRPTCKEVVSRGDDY
SMILES,"IC50 [1, 5] [µM]","IC50 [1, 6] [µM]",IC50 ([2]; Table 2) [µM],"IC50 [3, 7] [µM]","IC50 [3, 8] [µM]",IC50 ([4]; Table 2) [µM],"IC50 ([2]; Homo sapiens, Table 1) [µM]","IC50 ([4]; Homo sapiens, Table 1) [µM]","IC50 [1, 9] [µM]","IC50 [3, 10] [µM]","IC50 [3, 11] [µM]",also measured
O=C(Nc1cc(Cl)ccc1Cl)Oc1ccc(Cl)c2cccnc12 [Entry 4c],2.2,0.07,1.2,> 50,12.6,8,–,–,–,–,–,–
OCCOc1ccc(Cl)c2cccnc12 [Entry 3b],–,–,–,–,–,–,> 50,> 50,–,–,–,"IC50 [1]: > 50 µM; IC50 ([1]; read-out: hMetAP2 CO^2+ IC50, Co2+ as metal ion, Table 1): > 50 µM; IC50 [3]: > 50 µM; IC50 ([3]; read-out: hMetAP1 CO^2+ IC50, Co2+ as metal ion, Table 1): > 50 µM"
O=C(Nc1cc(Cl)c(Cl)cc1Cl)Oc1c(Cl)cc(Cl)c2cccnc12 [Entry 4a],> 50,2.6,1.3,> 50,> 50,4.9,–,–,–,–,–,–
CN1CCN(Cc2cc(Cl)c3cccnc3c2O)CC1 [Entry 2e],–,–,–,–,–,–,–,–,–,–,–,IC50 ([2]; Table 1): 9.6 µM; IC50 ([4]; Table 1): 15 µM
O=C(Nc1cc(Cl)ccc1Cl)Oc1c(Cl)cc(Cl)c2cccnc12 [Entry 4b],> 50,0.9,0.11,> 50,> 50,3,–,–,–,–,–,–
OCCN(CCO)Cc1cc(Cl)c2cccnc2c1O [Entry 2a],–,–,–,–,–,–,10.7,0.8,28,–,–,–
Oc1c(CN2CCCCC2)cc(Cl)c2cccnc12 [Entry 2b],–,–,–,–,–,–,–,–,–,> 50,> 50,–
Oc1c(C(c2ccccc2)N2CCOCC2)cc(Cl)c2cccnc12 (stereo not drawn) [Entry 2f],–,–,–,–,–,–,8.6,19.2,0.33,14,> 50,"IC50 [1, 12]: 8 µM"
Oc1c(CN2CCOCC2)ccc2cccnc12 [Entry 2c],–,–,–,–,–,–,33.3,9.8,15.2,> 50,> 50,"IC50 [1, 12]: > 50 µM"
C=CCOc1ccc(Cl)c2cccnc12 [Entry 3a],–,–,–,–,–,–,> 50,> 50,–,–,–,–
